Structures are written as SMILES. Like-named read-outs stand apart in the source and are kept apart here.

In data set [1] the test system is L. donovani promastigotes (MHOM/SD/62/1S). As to the kind of experiment: Inhibitory assay against L. donovani promastigotes (resazurin colorimetric assay). Particulars: Leishmania donovani, mean ± SD, triplicate. The data set is classed as cell-based. As for the experimental part: The cryopreserved promastigote form of L. donovani (1S (MHOM/SD/62/1S) was obtained from Bei Resources (https://www.beiresources.org/) and is routinely cultured at the Antimicrobial and Biocontrol Agents Unit, University of Yaoundé I, in Medium 199 (Sigma, Darmstadt, Germany) supplemented with 10% Heat-Inactivated fetal Bovine Serum (HIFBS) (Sigma, Darmstadt, Germany) and 100 IU/mL penicillin and 100 μg/mL streptomycin. The culture was maintained in 75 Cm^2 cell culture flask at 28 °C and checked for growth daily and sub-cultured everyday 72 h.
The stock solutions were prepared by dissolving each sample in 100% dimethyl sulfoxide (DMSO) and subsequently diluted serially in non-supplemented culture medium. […] The viability rate of promastigotes positively correlated with the amount of pink resorufin that was produced through the reduction of blue resazurin by the dehydrogenase enzymes in the inner mitochondrial membrane of the living parasites. Briefly, promastigotes from a logarithmic phase culture (4 × 10^5 cells/mL; 90 μL) were seeded in 96-well microtiter plates and were treated with 10 μl of inhibitors at different triplicate concentrations ranging 100 μg/mL-0.16 μg/mL for extracts and fractions and 50 μg/mL-0.08 μg/mL for compounds. The final concentration of DMSO in each well was not higher than 1%. Plates were incubated for 28 h at 28 °C, followed by the addition of 1 mg/mL resazurin (Sigma, Darmstadt, Germany). […] After an additional incubation for 44 h, plates were then read on a Magelan Infinite M200 fluorescence multi-well plate reader (Tecan, Männedorf, Switzerland) at an excitation and emission wave lengths of 530 and 590 nm respectively.

In the next data set the test system is L. donovani amastigotes. The data set is described as follows: Inhibitory assay against intracellular L. donovani amastigotes in Raw 264.7 macrophages (resazurin). It is filed as cell-based. Particulars: Leishmania donovani, RAW264.7, isolated compounds, mean ± SD. As for the experimental part: The effect of plant isolates against the intracellular amastigote form of L. donovani was evaluated essentially as described by Jain et al. with some modifications. Briefly, macrophage Raw 264.7 cells ([…]) were seeded in 96 well plates and incubated for 6 h at 37 °C under 5% CO2 for adhesion of the cells. Afterwards, the non-adherent cells were washed-out with sterile PBS. The adherent Raw 264.7 cells were infected with metacyclic promastigotes (4 × 10^5 cells) at an infection ratio of 1:10 macrophage: parasites and incubated for 24 h at 37 °C under 5% CO2 in order to allow infection of macrophages by metacyclic promastigotes. Thereafter, the overlying medium was removed, and the monolayer cells with internalized amastigotes were carefully washed four times with PBS to remove free parasites. Freshly prepared M199 medium containing 10% FBS and the test extracts were added in triplicate to the infected cells at serially diluted concentrations and incubated for 48 h at 37 °C under 5% CO2. After incubation, 0.05% Sodium dodecyl sulfate (SDS) was added in each well for 30 s for controlled lysis followed by M199 with 10% FBS as macrophage lysis stopper. Resazurin reagent (250 μg/mL) was thereafter added in each well and the plates were incubated for 24 h followed by fluorescence recording at λexcitation = 530 nm and λemission = 590 nm using a Tecan Infinite M200 microplate reader (Tecan). Inhibition percentages were calculated using Microsoft Excel Software and median inhibitory concentration (IC50) obtained from dose-response curves using GraphPad Prism 5.0. Software.
On the technique in general: Resazurin is reduced to fluorescent resorufin, in cell work by metabolically active cells.

The nature of the next data set: in vitro. To be noted: mouse. The method, then: The cytotoxicity profile of extracts, fractions and compounds was assessed using the Alamar blue assay against Raw 264.7 cells duly cultivated in complete Dulbecco’s Modified Eagle’s Medium (DMEM) containing 13.5 g/L DMEM (Sigma Aldrich), 10% fetal Bovine Serum (Sigma Aldrich), 0.2% sodium bicarbonate (w/v) (Sigma, Darmstadt, Germany) and 50 μg/mL gentamycin (Sigma Aldrich). Globally, macrophages were seeded into 96-wells cell-culture flat-bottomed plates at a density of 10^4 cells in final volume of 100 μL of complete medium/well and incubated for 24 h at 37 °C, 5% CO2, 70% RH in a ICO 105 memmert incubator (memmert, Schwabach, Germany) to allow cell adhesion. Ten μL of each serially diluted test sample were added in triplicate wells and assay plates were then incubated for 48 h in the same experimental conditions. Growth control consisted of 0.1%DMSO (100% growth) and positive control of podophyllotoxin (Sigma, Darmstadt, Germany) at 20 μM. Cell proliferation was checked by adding 10 μL of a stock solution of resazurin (0.15 mg/mL in sterile PBS) to each well followed by plates incubation during 4 h. Fluorescence was then read on a Tecan Infinite M200 fluorescence multi-well plate reader at an excitation/emission of 530/590 nm. […] Selectivity indices (CC50/IC50, defining the balance between cytotoxicity and antileishmanial activity) were calculated for each test substance.

Data set [2] deals with L. donovani promastigotes. As to the kind of experiment: Concentration/time inhibition (kill) kinetics, trypan blue counting. The data set is classed as cell-based, Leishmania donovani.
Experimental: The number of viable parasites was determined after every 24 h over 120 h by staining with trypan blue. Quantification of viable parasites was achieved by counting the parasites with clear cytoplasm (non-stained) using a Neubauer hemocytometer with cover slips. Three independent experiments were performed for each sample.
Where [3] appears, read: isolated compounds, read-out: IC50 (Promastigotes).

As for `OC1CC(O)C(O)C(O)C1O` (centres unmarked) [1-deoxyinositol (7), 1-deoxyinositol], the IC50 is 241.71 ± 0.16 µM in data set [1] (setting [3]) and 120 ± 0.18 µM in the data set on L. donovani amastigotes. Moreover, the CC50 in the data set “in vitro” was greater than 1220 µM.
Consider `C[C@@H]1[C@H](O)[C@@H](C)/C=C/C=C/C=C/C=C/C=C/C=C/C=C/[C@H](O[C@@H]2O[C@H](C)[C@@H](O)[C@H](N)[C@@H]2O)C[C@@H]2O[C@](O)(C[C@@H](O)C[C@@H](O)[C@H](O)CC[C@@H](O)C[C@@H](O)CC(=O)O[C@H]1C)C[C@H](O)[C@H]2C(=O)O` [Amphotericin B, reference compound], for which the IC50 in data set [1] (crude extracts, H20: EtOH, read-out: Promastigote of L. donovani (MHOM/SD/62/1S) IC50 ± SD) is 0.34 ± 0.22 µg/mL; in data set [1] (setting [3]), 0.37 ± 0.22 µM; in data set [1] (trunk extract and fractions, read-out: IC50 (Promastigotes)) it was 0.34 ± 0.22 µg/mL. For the same molecule, the “Effect on promastigote replication / growth” value in data set [2] (0.5x IC50, IC50, 2x IC50, 4x IC50, viable parasites counted every 24 h) was “significant reduction in promastigote replication after 24 h”. Besides, the Cidal effect entry in data set [2] (all tested concentrations, exposure up to 120 h) is recorded as “no evidence of cidal effect”.
As to `C=C(C)[C@@H]1CC[C@]2(C(=O)O)CC[C@]3(C)[C@H](CC[C@@H]4[C@@]5(C)CC[C@H](O)C(C)(C)[C@@H]5CC[C@]43C)[C@@H]12` [Betulinic acid (3), Betulinic acid], the IC50 in data set [1] (setting [3]) turned out to be 13.69 ± 0.07 µM; in the data set on L. donovani amastigotes it was 18.46 ± 0.01 µM. In the data set “in vitro”, this molecule registered a CC50 of 82.39 ± 0.09 µM.
Consider `C=C(C)[C@@H]1CC[C@]2(C)CC[C@]3(C)[C@H](CC[C@@H]4[C@@]5(C)CC[C@H](O)C(C)(C)[C@@H]5CC[C@]43C)[C@@H]12` [Lupeol (1), Lupeol], for which the IC50 in data set [1] (setting [3]) stood at 23.22 ± 0.08 µM; with L. donovani amastigotes, 46.7 ± 0.65 µM. Further, the CC50 at 48 h in the data set “in vitro” (Raw 264.7 cells (macrophages)) came out at 19.3 ± 0.3 µM.
`CCC(CCC(C)C1CCC2C3CC=C4CC(OC5OC(CO)C(O)C(O)C5O)CCC4(C)C3CCC12C)C(C)C` [β-sitosterol glucoside (6), β-sitosterol 3-O-D-glucopyranoside]: the results for the IC50 (in data set [1] (setting [3]); with L. donovani amastigotes) were 49.34 ± 0.12 µM and 32 ± 0.22 µM, respectively. Besides, the CC50 at 48 h in the data set “in vitro” is 28.6 ± 0.07 µM.

Source of the values: PMC8011081, “Bio-guided isolation of anti-leishmanial natural products from Diospyros gracilescens L. (Ebenaceae)” (BMC Complementary Medicine and Therapies, 2021).
